Values joined by “and” are separate entries in the source; they are usually repeats but may differ in a detail not shown here. Equal entries are not always repeated.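 Grown in 96-well plates, cells were treated for 48 hours with each compound at five concentrations. Insufficient inhibition: endpoint recorded as highest concentration tested. At the GI50, growth is halved. TGI: total growth inhibition.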

Common to all, as to experiment: NCI anticancer screen, dose series, 48 h
The subject of experiment [1] is MDA-MB-231 breast.
The test system of experiment [2] is HCT-15 colon.
Experiment [3] concerns A498 renal.
Experiment [4] deals with T-47D breast.
The test system of experiment [5] is COLO 205 colon.
The test system of experiment [6] is DU-145 prostate.
Experiment [7] relates to SR leukemia.
Experiment [8] concerns LOX IMVI melanoma.
For experiment [9], the system named is HL-60(TB) leukemia.
Experiment [10] relates to CAKI-1 renal.

Regarding `CN1CCN(c2nc(NCCCCNc3ccnc4cc(Cl)ccc34)c3ccccc3n2)CC1`, the GI50 in [1] was 2140 nM; in experiment [2], 2900 nM; in experiment [3], 12100 nM; in experiment [4], 2230 nM; in experiment [5], 2100 nM; in experiment [6] it was 7000 nM. Moreover, the GI50 in [7] is 2290 nM; in experiment [8], 1890 nM; in experiment [9], 1870 nM. In addition, the TGI was 5930 nM in experiment [1]; 14000 nM in experiment [2]; 25000 nM in [3]; 6650 nM in [4]; 5460 nM in [5]; 21700 nM in experiment [6]. In addition, the TGI in experiment [7] is 6270 nM; in experiment [8], 4190 nM; in experiment [9], 4230 nM.
For the compound `O=C1/C(=C/c2ccccc2F)CNC/C1=C\c1ccccc1F`, the GI50 is 1180 nM and 653 nM in experiment [1]; 196 nM and 291 nM in [2]; 194 nM and 1520 nM in experiment [3]; 676 nM and 611 nM in experiment [10]; 1070 nM and 2600 nM in experiment [4]; 820 nM and 584 nM in experiment [5]. Also, the GI50 was 642 nM and 710 nM in experiment [6]; 77.2 nM and 245 nM in experiment [7]; 318 nM and 186 nM in experiment [8]; 371 nM and 2040 nM in experiment [9]. The TGI is 3170 nM and 2360 nM in [1]; 511 nM and 1160 nM in experiment [2]; 978 nM and 2980 nM in experiment [3]; 3710 nM and 2160 nM in [10]; 6100 nM and 12200 nM in experiment [4]; 2570 nM and 1820 nM in experiment [5]. Further, the TGI in [6] is 2050 nM and 2010 nM; in experiment [7], 361 nM and 813 nM; in [8] it was 1220 nM and 461 nM; in experiment [9] it was 1960 nM and 6920 nM.
As to `COC(=O)c1cc(-c2cc(OC)c(OC)c(OC)c2)[nH]c1N/N=C/c1c(Cl)cccc1Cl`, the GI50 is 2750 nM in experiment [1]; 16000 nM in experiment [2]; 683 nM in [3]; 1610 nM in [10]; 1920 nM in experiment [4]; 4490 nM in [5]. For the same compound, the results for the GI50 in experiment [6], in experiment [7] and in [8] were 1850 nM, 926 nM and 2670 nM, respectively. The TGI in [1] was 22100 nM; in experiment [2], greater than 100000 nM; in experiment [3], 2460 nM; in experiment [10], 11400 nM; in [4], 6290 nM; in [5], greater than 68000 nM. For the same compound, the TGI was 16300 nM in experiment [6], greater than 100000 nM in experiment [7], 17300 nM in [8] and greater than 100000 nM in experiment [9].
Turning to `CC1=CCC(OC(=O)C(C)(C)CCC(O)(C(=O)OC2(C(C)C)CCC3(C)OC3C2)C(C)C)(C(C)C)CC1` (stereo unspecified), the GI50 was 643 nM in experiment [1]; 148 nM in [2]; 50.8 nM in experiment [3]; 255 nM in experiment [10]; 152 nM in [4]; 496 nM in experiment [5]. Besides, the GI50 is 230 nM in experiment [6], 266 nM in [7], 76.4 nM in experiment [8] and 229 nM in experiment [9]. Also, the TGI in experiment [1] was 1390 nM; in experiment [2], 688 nM; in experiment [3] it was 935 nM; in experiment [10], 1050 nM; in experiment [4] it was 1240 nM; in experiment [5], 1590 nM. The TGI came out at 451 nM in [6], 1510 nM in [7], 150 nM in experiment [8] and 7930 nM in experiment [9].
For `CN(CC(=O)O)c1ccc(/C=C/c2ccnc3ccccc23)cc1`, the TGI in [1] is greater than 100000 nM; in experiment [2] it was greater than 100000 nM; in [3], 47100 nM; in experiment [10], 66100 nM; in experiment [4], greater than 100000 nM; in [5], 34300 nM. Moreover, the TGI was greater than 100000 nM in experiment [6], 33700 nM in experiment [7], 45700 nM in [8] and 48200 nM in experiment [9].
Take `O=C1/C(=C/c2ccc3c(c2)OCO3)CCC1CN1CCOCC1` (stereo unspecified): the TGI in experiment [1] came out at 7730 nM; in experiment [2] it was 8460 nM; in experiment [3], 23900 nM; in experiment [10], 9210 nM; in experiment [4], 42300 nM; in [5], 35800 nM. Further, the TGI in [6] was determined as 29600 nM; in [7] it was 5420 nM; in [8] it was 7840 nM; in experiment [9], 3990 nM.
For the compound `C=CC1=C[C@@H]2[C@@H]3O[C@]4(CC[C@H](O4)[C@@H](C)C[C@@H](O)C3=O)C[C@H](O)C3=NCC[C@@]32CC1`, the GI50 in experiment [1], in experiment [2], in experiment [3], in experiment [10], in experiment [4] and in experiment [5] was less than 3.33 nM throughout. The GI50 in [6], in [7], in [8] and in [9] was less than 3.33 nM in each case. In addition, the TGI is 12.1 nM in [1]; less than 3.33 nM in [2]; less than 3.33 nM in experiment [3]; 6.17 nM in experiment [10]; 6.34 nM in experiment [4]; less than 3.33 nM in [5]. Besides, the TGI is 3.35 nM in [6], greater than 33300 nM in [7], less than 3.33 nM in experiment [8] and less than 3.33 nM in experiment [9].
In the case of `C/C(=C\c1ccn(-c2ccc(N)c(F)c2)n1)[C@@H]1C[C@@H]2O[C@]2(C)CCC[C@H](C)[C@H](O)[C@@H](C)C(=O)C(C)(C)[C@@H](O)CC(=O)O1`, the GI50 was 69.5 nM in [1]; 9.13 nM in [2]; less than 5 nM in experiment [3]; 80.2 nM in experiment [10]; 24.9 nM in [4]; 8.45 nM in [5]. In addition, the GI50 was 15.5 nM in [6], 9.15 nM in experiment [7], 12.1 nM in experiment [8] and 8.73 nM in [9]. For the same compound, the TGI is greater than 50000 nM in experiment [1]; greater than 50000 nM in [2]; 267 nM in [3]; greater than 50000 nM in experiment [10]; greater than 50000 nM in experiment [4]; 128 nM in experiment [5]. In addition, the TGI is 121 nM in experiment [6], greater than 50000 nM in experiment [7], greater than 50000 nM in experiment [8] and 323 nM in experiment [9].
As to `COc1ccc2c(c1)c(-c1nc(-c3c[nH]c4ncccc34)cs1)cn2CCCCN1CCOCC1`, the GI50 was 1700 nM in experiment [1]; 1960 nM in experiment [2]; 217 nM in experiment [3]; 1800 nM in experiment [10]; 2120 nM in experiment [4]; 1850 nM in experiment [5]. Also, the GI50 is 3070 nM in [6], 2010 nM in [7], 1710 nM in experiment [8] and 1940 nM in experiment [9]. Moreover, the TGI in [1] was 3500 nM; in [2], 4140 nM; in experiment [3], 3170 nM; in experiment [10], 3790 nM; in experiment [4] it was 6500 nM; in [5], 3580 nM. For the same compound, the TGI in experiment [6] was 9760 nM; in [7] it was 4650 nM; in experiment [8], 3190 nM; in experiment [9], 3850 nM.
Regarding `C[C@]12CC[C@@H]3c4ccc(O)cc4CC[C@H]3[C@@H]1CC[C@@H]2NS(=O)(=O)c1cccc(C(F)(F)F)c1`, the GI50 in [1] is 2390 nM; in experiment [2], 2170 nM; in experiment [3], 2700 nM; in experiment [10] it was 3230 nM; in [4] it was 3650 nM; in experiment [5], 2120 nM. Further, the GI50 in experiment [6] is 5830 nM; in experiment [7], 3980 nM; in [9] it was 3540 nM. In addition, the TGI is 6770 nM in experiment [1]; 5230 nM in experiment [2]; 8750 nM in experiment [3]; 11800 nM in experiment [10]; 13400 nM in [4]; 4130 nM in [5]. Moreover, the TGI in experiment [6] came out at 18400 nM; in [7], 27200 nM; in experiment [9], 15500 nM.
For the compound `COc1ccc(C(=O)/C=C/c2c(C(F)(F)F)nc3sccn23)cc1OC`, the GI50 in experiment [1] was 5910 nM; in experiment [2] it was 2540 nM; in experiment [3] it was 7580 nM; in experiment [10], 2460 nM; in [4], 2900 nM; in experiment [5], 4560 nM. The GI50 in experiment [6] was 1640 nM; in experiment [7], 493 nM; in experiment [9], 1000 nM. The TGI in [1] is greater than 100000 nM; in experiment [2] it was greater than 100000 nM; in experiment [3], 54900 nM; in experiment [10] it was greater than 100000 nM; in [4], 40700 nM; in [5] it was 72400 nM. In addition, the TGI in [6] was 5000 nM; in [7], greater than 100000 nM; in [9] it was 3860 nM.
In the case of `COc1ccc(-c2cc(-c3ccccc3)nc(N3CCN(CCNc4ccnc5cc(Cl)ccc45)CC3)n2)cc1`, the GI50 was 1810 nM in experiment [1]; 1400 nM in experiment [2]; 8150 nM in experiment [3]; 2970 nM in [10]; 1550 nM in experiment [4]; 1170 nM in [5]. Moreover, the GI50 in [6] is 1880 nM; in experiment [7], 310 nM; in experiment [8] it was 1760 nM. In addition, the TGI stood at 3430 nM in experiment [1]; 3140 nM in experiment [2]; 20700 nM in experiment [3]; 12100 nM in experiment [10]; 3730 nM in experiment [4]; 2660 nM in experiment [5]. Also, the TGI in experiment [6] was 3940 nM; in experiment [7], greater than 100000 nM; in [8], 3240 nM.

Values taken from PubChem BioAssay (NCI).
